Active and inactive are the calls of the source.

This note sets out measurements from ChEMBL document CHEMBL1201862, “PubChem BioAssay data set” (2004).

One series deals with Cytochrome P450 3A4 (Homo sapiens, UniProt P08684). To be noted: Potency.
The target of the next series is Nonstructural protein 1 (Influenza A virus, UniProt Q194T2). Format: functional, Influenza A virus (A/California/07/2009(H1N1)).
Series [1] has as its target T1, DNA repair protein RAD52 homolog (Homo sapiens, UniProt P43351).
T1 sequence (P43351 whole entry): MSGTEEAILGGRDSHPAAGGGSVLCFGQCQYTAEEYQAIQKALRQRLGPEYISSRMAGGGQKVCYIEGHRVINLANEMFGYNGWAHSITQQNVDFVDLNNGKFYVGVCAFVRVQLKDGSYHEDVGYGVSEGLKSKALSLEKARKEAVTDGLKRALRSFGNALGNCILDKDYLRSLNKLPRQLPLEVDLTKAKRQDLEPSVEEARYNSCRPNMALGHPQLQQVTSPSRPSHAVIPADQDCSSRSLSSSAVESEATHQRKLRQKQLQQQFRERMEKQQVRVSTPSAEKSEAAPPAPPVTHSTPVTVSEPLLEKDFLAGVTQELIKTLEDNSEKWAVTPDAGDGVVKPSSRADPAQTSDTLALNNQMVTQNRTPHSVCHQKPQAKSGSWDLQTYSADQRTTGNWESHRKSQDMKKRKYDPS
The format is functional, biochemical.

For series [2], the target named is T2, Ubiquitin-conjugating enzyme E2 N (Homo sapiens, UniProt P61088).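 Note: Dose-response confirmation in a TR-FRET assay detecting UBC13-driven polyubiquitin chain formation, inhibition measured.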
T2 sequence (P61088 whole entry): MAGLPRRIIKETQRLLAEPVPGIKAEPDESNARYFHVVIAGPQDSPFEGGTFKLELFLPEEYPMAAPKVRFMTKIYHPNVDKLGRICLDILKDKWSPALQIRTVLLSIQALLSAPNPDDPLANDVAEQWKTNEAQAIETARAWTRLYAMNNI
Format: functional.

Series [3] has as its target T3, Calpain-2 catalytic subunit (Sus scrofa, UniProt P43367).
T3 sequence (P43367 whole entry): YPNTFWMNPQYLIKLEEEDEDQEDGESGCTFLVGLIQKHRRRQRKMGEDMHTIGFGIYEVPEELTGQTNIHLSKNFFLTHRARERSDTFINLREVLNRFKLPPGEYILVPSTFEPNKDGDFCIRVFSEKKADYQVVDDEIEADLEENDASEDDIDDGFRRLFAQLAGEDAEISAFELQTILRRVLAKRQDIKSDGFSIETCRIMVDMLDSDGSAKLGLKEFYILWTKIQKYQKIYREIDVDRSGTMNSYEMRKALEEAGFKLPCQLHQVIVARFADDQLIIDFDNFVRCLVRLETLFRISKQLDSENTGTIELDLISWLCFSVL
The experiment in a line: pig calpain II inhibitor potency, dose response, biochemical, fluorogenic peptide substrate (AID 1420). Format: functional.

The target in series [4] is T4, Lysosomal acid glucosylceramidase (Homo sapiens, UniProt P04062).
T4 sequence (P04062 whole entry): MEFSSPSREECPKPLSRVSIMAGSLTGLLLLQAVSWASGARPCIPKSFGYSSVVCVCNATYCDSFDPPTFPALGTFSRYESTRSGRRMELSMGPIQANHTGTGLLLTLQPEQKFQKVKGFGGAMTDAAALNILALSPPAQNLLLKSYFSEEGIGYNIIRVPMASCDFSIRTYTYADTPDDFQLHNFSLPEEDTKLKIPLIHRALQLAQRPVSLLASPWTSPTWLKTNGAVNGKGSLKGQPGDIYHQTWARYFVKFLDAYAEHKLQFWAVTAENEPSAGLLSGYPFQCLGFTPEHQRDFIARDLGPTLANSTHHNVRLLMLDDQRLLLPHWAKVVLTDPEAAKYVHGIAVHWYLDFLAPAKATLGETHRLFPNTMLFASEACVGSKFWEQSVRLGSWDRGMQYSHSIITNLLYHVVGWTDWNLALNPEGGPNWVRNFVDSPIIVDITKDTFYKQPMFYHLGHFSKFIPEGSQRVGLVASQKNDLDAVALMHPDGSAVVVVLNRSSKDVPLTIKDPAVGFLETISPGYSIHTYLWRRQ
The series can be described thus: Dose response cell-based high throughput screening assay to identify enhancers of beta-glucosidase activity. [Related pubchem assays: 784 ]. The format is functional.

The target in the next series is Cytochrome P450 2C19 (Homo sapiens, UniProt P33261). The experiment in a line: Cytochrome panel assay with activity outcomes. Panel member name: p450-cyp2c19 Compounds with AC50 equal or less than 10 uM are considered active. Format: functional.
In series [5] the target is T5, Heat shock factor protein 1 (Mus musculus, UniProt P38532).
T5 sequence (P38532 whole entry): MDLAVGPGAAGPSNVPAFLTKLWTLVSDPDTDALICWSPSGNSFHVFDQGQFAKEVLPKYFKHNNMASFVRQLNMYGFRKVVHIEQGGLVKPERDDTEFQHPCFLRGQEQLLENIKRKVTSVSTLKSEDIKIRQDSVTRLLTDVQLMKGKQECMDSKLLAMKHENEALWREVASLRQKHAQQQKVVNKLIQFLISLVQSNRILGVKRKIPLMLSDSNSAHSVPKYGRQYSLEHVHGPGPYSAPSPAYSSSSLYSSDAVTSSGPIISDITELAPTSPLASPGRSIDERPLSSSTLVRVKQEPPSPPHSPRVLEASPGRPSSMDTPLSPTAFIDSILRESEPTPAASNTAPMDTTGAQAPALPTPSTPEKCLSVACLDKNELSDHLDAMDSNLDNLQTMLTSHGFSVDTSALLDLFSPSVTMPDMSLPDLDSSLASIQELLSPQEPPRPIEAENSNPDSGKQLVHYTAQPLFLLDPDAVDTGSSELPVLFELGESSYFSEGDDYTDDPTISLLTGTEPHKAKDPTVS
The series can be described thus: inhibition of MG132-induced HSE-luciferase signal, confirmation, cell-based, NIH3T3, luminescence, dose retest (AID 2382).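 Note: NIH3T3 fibroblasts with HSF1-driven luciferase reporter stressed by proteasome inhibitor MG132; luminescence from HSF1-driven luciferase expression after 8 hours of MG132 stress.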 Format: functional.

In series [6] the target is T6, Short transient receptor potential channel 4 (Mus musculus, UniProt Q9QUQ5).
T6 sequence (Q9QUQ5 whole entry): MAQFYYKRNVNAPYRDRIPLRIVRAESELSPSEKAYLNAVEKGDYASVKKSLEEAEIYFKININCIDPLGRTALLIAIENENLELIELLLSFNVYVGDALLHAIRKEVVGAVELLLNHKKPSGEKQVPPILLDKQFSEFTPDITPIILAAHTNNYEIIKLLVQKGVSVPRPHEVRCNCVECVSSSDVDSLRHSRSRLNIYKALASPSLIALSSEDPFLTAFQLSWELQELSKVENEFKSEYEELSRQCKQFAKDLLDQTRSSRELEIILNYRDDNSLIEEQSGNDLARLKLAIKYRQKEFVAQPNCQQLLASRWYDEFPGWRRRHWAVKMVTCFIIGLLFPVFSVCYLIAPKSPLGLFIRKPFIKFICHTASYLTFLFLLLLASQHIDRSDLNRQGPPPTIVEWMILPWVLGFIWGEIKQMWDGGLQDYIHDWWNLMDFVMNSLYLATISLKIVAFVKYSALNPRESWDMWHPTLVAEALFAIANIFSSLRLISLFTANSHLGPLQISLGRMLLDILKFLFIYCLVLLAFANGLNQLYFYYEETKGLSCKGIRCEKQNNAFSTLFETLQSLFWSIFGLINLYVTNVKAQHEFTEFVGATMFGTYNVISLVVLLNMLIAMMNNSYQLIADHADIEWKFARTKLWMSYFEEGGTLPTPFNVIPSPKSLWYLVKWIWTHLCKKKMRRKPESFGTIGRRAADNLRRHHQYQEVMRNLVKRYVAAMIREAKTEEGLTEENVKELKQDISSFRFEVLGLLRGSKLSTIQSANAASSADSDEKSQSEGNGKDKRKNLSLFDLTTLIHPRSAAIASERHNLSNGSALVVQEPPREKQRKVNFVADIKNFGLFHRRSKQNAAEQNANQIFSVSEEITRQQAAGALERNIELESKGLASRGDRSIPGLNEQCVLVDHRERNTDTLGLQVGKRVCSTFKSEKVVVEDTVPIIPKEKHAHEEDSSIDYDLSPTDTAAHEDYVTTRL
The series can be described thus: mouse TRPC4 channel inhibitors, dose response, cell-based, HEK293 TRPC4/mu-opioid, Fluo-4 calcium (AID 434942).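 Note: potency of inhibitors blocking the TRPC4 calcium response.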 The format is functional.

The nature of series [7]: cytotoxicity in HEK-293T cells, dose response, cytotoxicity control for TCR NF-kB inhibitor project, luminescence, T-cell screen hits (AID 489026).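 Note: cells exposed to compound about 14 hours before the viability readout.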 Format: functional, cell-based.
A further series deals with Trypsin (Sus scrofa, UniProt P00761). The experiment in a line: porcine trypsin inhibitors, dose response, selectivity assay for Rce1 protease inhibitor project, biochemical, quenched peptide fluorescence, cherry-pick (AID 488789).
The next series has as its target SUMO-activating enzyme (Homo sapiens, UniProt Q9UBT2). The experiment in a line: inhibitors of in vitro SUMOylation cascade, primary screen, biochemical, HTRF, uHTS (AID 2006). Format: protein-complex assay. (Time-resolved FRET reads energy transfer from a long-lived donor to a nearby acceptor.)
In series [8] the target is Peroxisome proliferator-activated receptor gamma/Nuclear receptor coactivator 2 (Homo sapiens, UniProt P37231). The experiment in a line: TR-FRET dose response biochemical High Throughput Screening assay for agonists of the steroid receptor coactivator 2 (SRC-2) recruitment by the peroxisome proliferator-activated receptor gamma (PPAR gamma): non-selective agonists. [Related pubchem assays: 1297, 1032 ]. Format: functional.

Series [9] concerns the target Peroxisome proliferator-activated receptor gamma/Nuclear receptor coactivator 3 (Homo sapiens, UniProt P37231). The experiment in a line: TR-FRET dose response biochemical High Throughput Screening assay for agonists of the steroid receptor coactivator 3 (SRC-3) recruitment by the peroxisome proliferator-activated receptor gamma (PPAR gamma): non-selective agonists. [Related pubchem assays: 1301 (Confirmation screen.), 1048 (Primary screen.)]. Format: functional.

The target in series [10] is Peroxisome proliferator-activated receptor gamma/Nuclear receptor coactivator 1 (Homo sapiens, UniProt P37231). The experiment in a line: TR-FRET dose response biochemical High Throughput Screening assay for agonists of the steroid receptor coactivator 1 (SRC-1) recruitment by the peroxisome proliferator-activated receptor gamma (PPAR gamma): non-selective agonists. [Related pubchem assays (depositor defined):AID1300, AID1808, AID504735, AID631]. Format: protein assay.

Series [11] concerns Vero. The experiment in a line: cells. The format is functional, cell-based. To be noted: Chlorocebus sabaeus.
In series [12] the test system is Vero. The series can be described thus: cells. The format is functional. The note with it: Chlorocebus sabaeus.
A short description of series [13]: HEp-2 cell cytotoxicity, dose response, cytotoxicity control for RSV inhibitor project, HTS (AID 2410). To be noted: human respiratory syncytial virus. Format: functional.

Chain of Cytochrome P450 3A4 (P08684 whole entry): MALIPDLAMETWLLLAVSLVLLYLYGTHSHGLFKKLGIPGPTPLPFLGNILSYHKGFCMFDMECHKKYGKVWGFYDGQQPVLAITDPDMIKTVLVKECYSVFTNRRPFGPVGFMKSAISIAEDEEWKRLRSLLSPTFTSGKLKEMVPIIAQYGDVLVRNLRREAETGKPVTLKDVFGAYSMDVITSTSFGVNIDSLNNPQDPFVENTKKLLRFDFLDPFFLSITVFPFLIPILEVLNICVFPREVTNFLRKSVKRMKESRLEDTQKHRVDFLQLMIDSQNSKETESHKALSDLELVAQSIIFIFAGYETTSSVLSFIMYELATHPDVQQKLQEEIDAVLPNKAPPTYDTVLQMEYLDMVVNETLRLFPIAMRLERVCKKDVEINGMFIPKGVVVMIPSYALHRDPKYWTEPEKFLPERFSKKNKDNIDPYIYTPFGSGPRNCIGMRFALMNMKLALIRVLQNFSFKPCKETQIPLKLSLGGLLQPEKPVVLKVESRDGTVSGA
Chain of Peroxisome proliferator-activated receptor gamma/Nuclear receptor coactivator 1 (P37231 whole entry): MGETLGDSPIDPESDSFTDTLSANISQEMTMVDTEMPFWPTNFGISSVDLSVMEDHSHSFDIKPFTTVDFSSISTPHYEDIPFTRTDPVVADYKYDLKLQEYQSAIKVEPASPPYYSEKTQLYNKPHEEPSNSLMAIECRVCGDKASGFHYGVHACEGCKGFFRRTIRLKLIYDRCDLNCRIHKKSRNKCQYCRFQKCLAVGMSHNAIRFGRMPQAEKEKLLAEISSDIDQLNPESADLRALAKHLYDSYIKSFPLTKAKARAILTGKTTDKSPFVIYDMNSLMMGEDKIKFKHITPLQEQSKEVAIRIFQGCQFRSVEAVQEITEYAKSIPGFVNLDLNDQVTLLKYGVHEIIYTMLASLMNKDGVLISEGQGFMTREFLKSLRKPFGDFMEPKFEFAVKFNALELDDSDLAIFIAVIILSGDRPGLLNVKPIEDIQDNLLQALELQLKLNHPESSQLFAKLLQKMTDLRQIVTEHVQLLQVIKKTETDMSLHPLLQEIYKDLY
Chain of Peroxisome proliferator-activated receptor gamma/Nuclear receptor coactivator 1 (Q15788 whole entry, further chain): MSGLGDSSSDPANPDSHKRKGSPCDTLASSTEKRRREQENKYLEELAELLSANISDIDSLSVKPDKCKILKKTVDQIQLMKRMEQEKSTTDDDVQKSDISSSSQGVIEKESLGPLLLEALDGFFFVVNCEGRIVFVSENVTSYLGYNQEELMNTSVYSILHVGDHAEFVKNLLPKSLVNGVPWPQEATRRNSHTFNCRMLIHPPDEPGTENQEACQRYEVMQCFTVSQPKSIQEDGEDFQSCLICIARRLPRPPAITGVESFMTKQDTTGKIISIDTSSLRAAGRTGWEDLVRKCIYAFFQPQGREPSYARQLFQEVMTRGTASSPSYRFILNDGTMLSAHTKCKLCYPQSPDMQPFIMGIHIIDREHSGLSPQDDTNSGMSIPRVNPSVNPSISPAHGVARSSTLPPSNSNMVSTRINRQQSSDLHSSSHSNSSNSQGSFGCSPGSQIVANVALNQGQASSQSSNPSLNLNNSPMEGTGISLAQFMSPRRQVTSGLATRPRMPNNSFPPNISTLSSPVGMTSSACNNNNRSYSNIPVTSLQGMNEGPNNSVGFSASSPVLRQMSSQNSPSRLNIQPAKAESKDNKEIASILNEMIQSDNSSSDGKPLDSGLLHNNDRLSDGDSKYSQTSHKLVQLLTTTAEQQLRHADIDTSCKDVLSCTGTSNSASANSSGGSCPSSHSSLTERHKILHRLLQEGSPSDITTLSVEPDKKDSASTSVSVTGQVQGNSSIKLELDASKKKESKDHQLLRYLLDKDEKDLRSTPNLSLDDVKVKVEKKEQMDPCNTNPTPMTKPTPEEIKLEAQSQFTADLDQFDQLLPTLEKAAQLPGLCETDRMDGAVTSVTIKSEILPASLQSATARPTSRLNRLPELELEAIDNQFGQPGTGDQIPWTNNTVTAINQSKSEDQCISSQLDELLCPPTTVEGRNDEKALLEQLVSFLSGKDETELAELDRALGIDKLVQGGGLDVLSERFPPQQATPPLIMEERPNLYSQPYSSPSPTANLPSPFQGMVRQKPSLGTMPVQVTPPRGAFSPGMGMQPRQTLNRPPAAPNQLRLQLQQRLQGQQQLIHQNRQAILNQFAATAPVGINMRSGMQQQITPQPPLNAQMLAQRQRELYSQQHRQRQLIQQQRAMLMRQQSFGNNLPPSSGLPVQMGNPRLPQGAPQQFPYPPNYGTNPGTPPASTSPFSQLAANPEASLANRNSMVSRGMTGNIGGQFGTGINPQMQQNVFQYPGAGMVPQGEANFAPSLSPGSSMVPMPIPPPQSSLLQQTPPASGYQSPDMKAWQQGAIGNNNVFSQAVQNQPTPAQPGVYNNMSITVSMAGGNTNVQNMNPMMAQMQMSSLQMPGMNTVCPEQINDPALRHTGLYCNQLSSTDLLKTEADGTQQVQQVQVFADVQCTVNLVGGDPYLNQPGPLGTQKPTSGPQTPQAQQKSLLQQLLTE
Chain of Peroxisome proliferator-activated receptor gamma/Nuclear receptor coactivator 3 (P37231 whole entry): as the sequence (P37231 whole entry) above
Chain of Peroxisome proliferator-activated receptor gamma/Nuclear receptor coactivator 3 (Q9Y6Q9 whole entry, further chain): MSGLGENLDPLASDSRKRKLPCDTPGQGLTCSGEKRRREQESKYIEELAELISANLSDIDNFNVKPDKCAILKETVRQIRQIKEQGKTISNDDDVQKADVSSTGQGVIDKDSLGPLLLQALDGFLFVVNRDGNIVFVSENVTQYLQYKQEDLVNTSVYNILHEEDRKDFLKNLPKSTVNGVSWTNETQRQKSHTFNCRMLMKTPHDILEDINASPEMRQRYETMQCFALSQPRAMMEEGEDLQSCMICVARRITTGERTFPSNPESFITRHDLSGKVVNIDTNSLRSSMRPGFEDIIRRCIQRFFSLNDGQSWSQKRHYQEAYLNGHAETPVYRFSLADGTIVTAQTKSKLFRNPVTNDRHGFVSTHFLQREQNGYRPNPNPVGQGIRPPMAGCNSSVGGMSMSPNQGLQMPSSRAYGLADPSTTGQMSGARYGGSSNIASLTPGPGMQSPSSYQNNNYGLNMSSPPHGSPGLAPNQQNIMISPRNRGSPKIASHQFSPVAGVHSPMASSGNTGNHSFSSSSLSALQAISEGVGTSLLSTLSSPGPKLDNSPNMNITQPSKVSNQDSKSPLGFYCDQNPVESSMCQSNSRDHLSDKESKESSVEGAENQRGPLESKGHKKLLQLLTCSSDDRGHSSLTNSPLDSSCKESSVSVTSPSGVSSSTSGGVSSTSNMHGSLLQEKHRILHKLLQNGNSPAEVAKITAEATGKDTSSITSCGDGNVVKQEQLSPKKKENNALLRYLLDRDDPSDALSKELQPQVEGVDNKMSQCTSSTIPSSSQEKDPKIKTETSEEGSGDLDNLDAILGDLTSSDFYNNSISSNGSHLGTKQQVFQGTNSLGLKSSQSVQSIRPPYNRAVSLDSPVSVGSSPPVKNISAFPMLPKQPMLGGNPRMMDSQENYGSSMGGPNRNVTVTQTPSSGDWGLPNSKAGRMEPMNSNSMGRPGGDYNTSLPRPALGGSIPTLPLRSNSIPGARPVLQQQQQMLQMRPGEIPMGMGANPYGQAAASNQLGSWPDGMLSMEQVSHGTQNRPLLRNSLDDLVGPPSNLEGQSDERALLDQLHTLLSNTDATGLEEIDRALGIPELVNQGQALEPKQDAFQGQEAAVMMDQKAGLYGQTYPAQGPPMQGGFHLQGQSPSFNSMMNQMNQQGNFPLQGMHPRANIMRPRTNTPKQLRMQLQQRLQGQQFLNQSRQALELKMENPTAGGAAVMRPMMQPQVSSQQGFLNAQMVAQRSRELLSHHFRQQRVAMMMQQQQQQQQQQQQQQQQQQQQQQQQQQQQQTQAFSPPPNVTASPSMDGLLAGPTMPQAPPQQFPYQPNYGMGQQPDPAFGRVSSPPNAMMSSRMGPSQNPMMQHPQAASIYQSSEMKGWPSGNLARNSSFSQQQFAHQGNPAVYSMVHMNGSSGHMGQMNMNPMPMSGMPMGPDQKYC
Chain of Cytochrome P450 2C19 (P33261 whole entry): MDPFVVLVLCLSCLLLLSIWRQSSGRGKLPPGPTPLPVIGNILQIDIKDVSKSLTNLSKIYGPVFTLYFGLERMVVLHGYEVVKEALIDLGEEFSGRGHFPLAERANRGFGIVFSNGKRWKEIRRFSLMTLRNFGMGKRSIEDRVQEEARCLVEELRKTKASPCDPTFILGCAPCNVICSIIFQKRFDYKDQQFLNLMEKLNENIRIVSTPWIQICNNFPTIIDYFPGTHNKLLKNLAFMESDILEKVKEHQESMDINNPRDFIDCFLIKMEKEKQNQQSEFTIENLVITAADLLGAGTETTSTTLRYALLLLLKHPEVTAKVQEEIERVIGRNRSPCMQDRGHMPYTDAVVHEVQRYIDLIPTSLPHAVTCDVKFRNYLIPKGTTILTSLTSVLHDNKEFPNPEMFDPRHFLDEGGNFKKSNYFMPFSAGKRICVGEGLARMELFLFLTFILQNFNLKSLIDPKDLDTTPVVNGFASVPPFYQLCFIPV

For orientation: AC50 means the concentration at which the activity in the assay is half-maximal. As for `COC(=O)C1=C(C)N(Cc2ccccc2)[C@]23O[C@](C(=O)OC)(C(=O)N2C1c1ccccc1)C(C(=O)OC)=C3C(=O)OC` (stereo partly drawn), the AC50 at Cytochrome P450 3A4 was 3.16 µM (inconclusive). For orientation: IC50 means the concentration that gives 50% inhibition. Take `CN1CCN(C2CCN(Cc3ccc(O)c4ncccc34)CC2)CC1`: the results for the IC50 (at Nonstructural protein 1; in [2]) were 5.84 µM (active) and > 20 µM (inactive), respectively. In [1], the AC50 is 1.11 µM (active). In general, EC50 refers to the concentration needed to bring the measured effect to its halfway point. Regarding `Nc1nonc1-c1noc(CCCCCN2C(=O)c3ccccc3C2=O)n1`, the IC50 in [3] is 2.74 µM (not active). Besides, the EC50 in [4] is reported as > 10 µM (not active).

Turning to `Cc1nonc1NC(=O)OCCN1CCOC1=O`, in [4], the EC50 is on record as > 50 µM (not active). For the same compound, the AC50 entry on Cytochrome P450 2C19 is “inconclusive”.

For `Nc1c2c(nc3ccccc13)N(c1ccccc1)CC2`, the EC50 in series [5] was > 195 µM (not active); in series [6], 1.88 µM (active). On to `COC(=O)N1C2(C=CC1(C)C(=O)NCc1ccc(N(C)C)cc1)CCCCC2` (stereo not drawn), for which the AC50 on Cytochrome P450 3A4 was 0.501 µM (inconclusive). For `CCOCCCNC(=O)c1cc2c(=O)n3cccc(C)c3nc2n1C`, in [7], the IC50 was > 80 µM (inactive). On to `OC(COCC1CC=CCC1)Cn1cnc2ccccc21` (stereo not drawn), for which the 50% effective concentration (EC50) in series [4] is reported as > 50 µM (not active). On to `Cc1n[nH]c(C)c1CCCCOc1ccccc1`, for which the EC50 in series [6] is 3.76 µM (active). As for `O=C1C(Cc2c[nH]c3ccccc23)NC(=S)N1Cc1ccccc1` (stereo not drawn), at Trypsin, the AC50 was 14.3 µM (active).

With `Cc1ccc2[nH]c3c(c2c1)CN(C(=O)CN1CCCc2ccccc21)CC3`, at SUMO-activating enzyme, the IC50 is 69.6 µM (active). As for `O=C(NCCCN1CCCCC1)C1CCN(c2ncnc3c2nc2n3CCCCC2)CC1`, in series [2], the IC50 was > 20 µM (inactive). As to `NS(=O)(=O)c1ccc(-c2ccc(/C=C3\C(=O)Nc4cc(Cl)ccc43)o2)cc1`, the EC50 was 9.96 µM (active) in series [8], > 26.5 µM (not active) in series [9] and 19.7 µM (inactive) in series [10].

Regarding `FC(F)(F)c1ccc(C2[C@H]3CN(Cc4ccc(-c5ccccc5)cc4)[C@H](c4ccccc4)C34CC2(c2ccccc2)C4)cc1` (stereo partly drawn), the AC50 at Cytochrome P450 3A4 was 25.1 µM (inconclusive). Regarding `Cn1c(NCc2ccccc2O)nc2ccccc21`, in [6], the EC50 was 7.5 µM (active). For the compound `CCc1ccc(-c2cc(C(=O)N/N=C/c3ccccn3)[nH]n2)cc1`, the IC50 in series [2] was > 20 µM (inactive). As for `CCOCc1cn(CC(=O)c2ccc(Cl)cc2)c(C)nc1=N`, the EC50 in series [6] was 2.99 µM (active). Usually CC50 stands for the concentration that lowers cell viability or growth by half. As to `CCCc1c(NC(=O)Nc2ccc(F)cc2)cnn1-c1ccccc1`, the IC50 with Vero [11] is 2.12 µM (active); in the series “cells” it was 4.51 µM (active). Besides, the CC50 was > 25 µM (active) with Vero [12] and 21.3 µM (active) in [13]. Turning to `Cc1ccc(-c2csc(N3CCN(c4cc5c(cc4Cl)nc(C)n5CCN4CCCCC4)CC3)n2)cc1`, the IC50 in series [2] was > 20 µM (inactive). For the compound `O=C(Oc1ccccc1)Oc1ccc2c(c1)oc(=O)c1ccccc12`, the EC50 in series [8] was 64.1 µM (not active); in series [9] it was > 79.4 µM (not active); in series [10], > 79.4 µM (inactive). With `COCCCn1c(SCC(=O)OC2CCCCC2)nnc1-c1ccco1`, the EC50 in series [4] is given as > 50 µM (not active).
